PubChem BioAssay (NCI)
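Test compounds were applied to cells in 96-well plates for 48 hours at 5 doses. TGI: concentration producing complete growth inhibition.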

What was measured:
Experiment in all cases: NCI anticancer screen, dose series, 48 h
MCF7 breast = tested on: MCF7 breast
NCI-H226 lung = tested on: NCI-H226 lung
HCT-15 colon = tested on: HCT-15 colon
HOP-92 NSCLC = tested on: HOP-92 NSCLC
LOX IMVI melanoma = tested on: LOX IMVI melanoma
HT29 colon = tested on: HT29 colon
ACHN renal = tested on: ACHN renal
COLO 205 colon = tested on: COLO 205 colon
NCI-H460 lung = tested on: NCI-H460 lung
MOLT-4 leukemia = tested on: MOLT-4 leukemia
SW-620 colon = tested on: SW-620 colon
IGROV1 ovarian = tested on: IGROV1 ovarian
HCT-116 colon = tested on: HCT-116 colon
OVCAR-4 ovarian = tested on: OVCAR-4 ovarian
MDA-MB-231 breast = tested on: MDA-MB-231 breast
A498 renal = tested on: A498 renal
CAKI-1 renal = tested on: CAKI-1 renal
NCI/ADR-RES ovarian = tested on: NCI/ADR-RES ovarian
SNB-75 CNS = tested on: SNB-75 CNS
UACC-257 melanoma = tested on: UACC-257 melanoma
OVCAR-8 ovarian = tested on: OVCAR-8 ovarian
UACC-62 melanoma = tested on: UACC-62 melanoma
OVCAR-5 ovarian = tested on: OVCAR-5 ovarian
DU-145 prostate = tested on: DU-145 prostate
EKVX NSCLC = tested on: EKVX NSCLC
MDA-MB-435 = tested on: MDA-MB-435
CCRF-CEM leukemia = tested on: CCRF-CEM leukemia
SF-539 CNS = tested on: SF-539 CNS
SR leukemia = tested on: SR leukemia
K-562 leukemia = tested on: K-562 leukemia
SNB-19 CNS = tested on: SNB-19 CNS
MDA-N = tested on: MDA-N
M14 melanoma = tested on: M14 melanoma
SK-MEL-5 melanoma = tested on: SK-MEL-5 melanoma
SF-295 CNS = tested on: SF-295 CNS
KM12 colon = tested on: KM12 colon
RXF 393 renal = tested on: RXF 393 renal
HL-60(TB) leukemia = tested on: HL-60(TB) leukemia
UO-31 renal = tested on: UO-31 renal
TK-10 renal = tested on: TK-10 renal
OVCAR-3 ovarian = tested on: OVCAR-3 ovarian
786-0 renal = tested on: 786-0 renal
SN12C renal = tested on: SN12C renal
SK-MEL-28 melanoma = tested on: SK-MEL-28 melanoma
U251 CNS = tested on: U251 CNS
SK-OV-3 ovarian = tested on: SK-OV-3 ovarian
A549 NSCLC = tested on: A549 NSCLC
SK-MEL-2 melanoma = tested on: SK-MEL-2 melanoma
RPMI-8226 leukemia = tested on: RPMI-8226 leukemia
PC-3 prostate = tested on: PC-3 prostate
HCC-2998 colon = tested on: HCC-2998 colon
NCI-H522 lung = tested on: NCI-H522 lung
MALME-3M melanoma = tested on: MALME-3M melanoma
HOP-62 NSCLC = tested on: HOP-62 NSCLC
HS 578T breast = tested on: HS 578T breast
NCI-H23 lung = tested on: NCI-H23 lung
SF-268 CNS = tested on: SF-268 CNS
T-47D breast = tested on: T-47D breast

In the case of `O=c1[nH]c(=O)n(COCc2ccccc2)c2ccc(Br)cc12`, the TGI (MCF7 breast) is reported as over 100 µM, the TGI (NCI-H226 lung) is reported as over 100 µM and the TGI (HCT-15 colon) is reported as over 100 µM. For the same molecule, the TGI (HOP-92 NSCLC) was over 100 µM, the TGI (LOX IMVI melanoma) was over 100 µM and the TGI (HT29 colon) was over 100 µM. For the same molecule, the TGI (ACHN renal) was over 100 µM, the TGI (COLO 205 colon) was over 100 µM and the TGI (NCI-H460 lung) was over 100 µM. For the same molecule, the TGI (MOLT-4 leukemia) was over 100 µM, the TGI (SW-620 colon) was over 100 µM and the TGI (IGROV1 ovarian) was over 100 µM. The TGI (HCT-116 colon) was over 100 µM, the TGI (OVCAR-4 ovarian) was over 100 µM and the TGI (MDA-MB-231 breast) was over 100 µM. The TGI (A498 renal) was over 100 µM, the TGI (CAKI-1 renal) was over 100 µM and the TGI (NCI/ADR-RES ovarian) was over 100 µM. It also gave a TGI (SNB-75 CNS) of over 100 µM, a TGI (UACC-257 melanoma) of over 100 µM and a TGI (OVCAR-8 ovarian) of over 100 µM. For the same molecule, the TGI (UACC-62 melanoma) was over 100 µM, the TGI (OVCAR-5 ovarian) was over 100 µM and the TGI (DU-145 prostate) was over 100 µM. It also gave a TGI (EKVX NSCLC) of over 100 µM, a TGI (MDA-MB-435) of over 100 µM and a TGI (CCRF-CEM leukemia) of over 100 µM. For the same molecule, the TGI (SF-539 CNS) was over 100 µM, the TGI (SR leukemia) was over 100 µM and the TGI (K-562 leukemia) was over 100 µM. The TGI (SNB-19 CNS) was over 100 µM, the TGI (MDA-N) was over 100 µM and the TGI (M14 melanoma) was over 100 µM. For the same molecule, the TGI (SK-MEL-5 melanoma) was over 100 µM, the TGI (SF-295 CNS) was over 100 µM and the TGI (KM12 colon) was over 100 µM. For the same molecule, the TGI (RXF 393 renal) was over 100 µM, the TGI (HL-60(TB) leukemia) was over 100 µM and the TGI (UO-31 renal) was over 100 µM. For the same molecule, the TGI (TK-10 renal) was over 100 µM, the TGI (OVCAR-3 ovarian) was over 100 µM and the TGI (786-0 renal) was over 100 µM. For the same molecule, the TGI (SN12C renal) was over 100 µM, the TGI (SK-MEL-28 melanoma) was over 100 µM and the TGI (U251 CNS) was over 100 µM. It also gave a TGI (SK-OV-3 ovarian) of over 100 µM, a TGI (A549 NSCLC) of over 100 µM and a TGI (SK-MEL-2 melanoma) of over 100 µM.

`CCOC(=O)C(NC(=O)CC(C)C)(Nc1ccc(C(F)(F)F)cc1)C(F)(F)F` (stereo unspecified) gave a TGI (MCF7 breast) of over 100 µM, a TGI (NCI-H226 lung) of over 100 µM and a TGI (HCT-15 colon) of over 100 µM. For the same molecule, the TGI (RPMI-8226 leukemia) was 93.8 µM, the TGI (HOP-92 NSCLC) was over 100 µM and the TGI (LOX IMVI melanoma) was over 100 µM. It also gave a TGI (HT29 colon) of over 100 µM, a TGI (ACHN renal) of 91 µM and a TGI (NCI-H460 lung) of over 100 µM. For the same molecule, the TGI (MOLT-4 leukemia) was over 100 µM, the TGI (SW-620 colon) was over 100 µM and the TGI (IGROV1 ovarian) was over 100 µM. It also gave a TGI (HCT-116 colon) of over 100 µM, a TGI (OVCAR-4 ovarian) of over 100 µM and a TGI (NCI/ADR-RES ovarian) of over 100 µM. For the same molecule, the TGI (PC-3 prostate) was over 100 µM, the TGI (SNB-75 CNS) was 60.9 µM and the TGI (UACC-257 melanoma) was over 100 µM. It also gave a TGI (OVCAR-8 ovarian) of over 100 µM, a TGI (OVCAR-5 ovarian) of over 100 µM and a TGI (DU-145 prostate) of over 100 µM. The TGI (EKVX NSCLC) was over 100 µM, the TGI (MDA-MB-435) was over 100 µM and the TGI (HCC-2998 colon) was over 100 µM. It also gave a TGI (CCRF-CEM leukemia) of over 100 µM, a TGI (SF-539 CNS) of over 100 µM and a TGI (SR leukemia) of over 100 µM. The TGI (K-562 leukemia) was over 100 µM, the TGI (NCI-H522 lung) was over 100 µM and the TGI (SNB-19 CNS) was over 100 µM. For the same molecule, the TGI (MDA-N) was over 100 µM, the TGI (M14 melanoma) was over 100 µM and the TGI (SK-MEL-5 melanoma) was over 100 µM. For the same molecule, the TGI (SF-295 CNS) was over 100 µM, the TGI (MALME-3M melanoma) was over 100 µM and the TGI (KM12 colon) was 55.6 µM. For the same molecule, the TGI (RXF 393 renal) was over 100 µM, the TGI (HL-60(TB) leukemia) was 59.9 µM and the TGI (UO-31 renal) was over 100 µM. For the same molecule, the TGI (TK-10 renal) was over 100 µM, the TGI (HOP-62 NSCLC) was over 100 µM and the TGI (OVCAR-3 ovarian) was over 100 µM. For the same molecule, the TGI (HS 578T breast) was over 100 µM, the TGI (786-0 renal) was over 100 µM and the TGI (SN12C renal) was over 100 µM. It also gave a TGI (SK-MEL-28 melanoma) of over 100 µM, a TGI (U251 CNS) of over 100 µM and a TGI (SK-OV-3 ovarian) of over 100 µM. The TGI (NCI-H23 lung) was over 100 µM, the TGI (SF-268 CNS) was over 100 µM and the TGI (T-47D breast) was 81.8 µM. The TGI (A549 NSCLC) was over 100 µM and the TGI (SK-MEL-2 melanoma) was over 100 µM.
